Columns and labels:
Test in all cases: relative viability (nuclei count vs DMSO), 5 days (fraction); higher = more cells survive
[1] = compound: Cn1nnc2c(C(N)=O)ncn2c1=O [Temozolomide] + CS(=O)(=O)N1CCN(Cc2cc3nc(-c4cccc5[nH]ncc45)nc(N4CCOCC4)c3s2)CC1 [Pictilisib] (partner 1 µM)
Procedure, shortened: (§1)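 Lung cancer cell lines in 1536-well plates were dosed by pin tool the day after seeding, either with one drug alone or with a fixed anchor-drug dose plus five library-drug doses (not always all listed) in √10 steps. After 5 days, cells were fixed and their nuclei stained in one step (final 0.05% Triton X-100, 1% formaldehyde, 1 ug/ml Hoechst), then counted on 4× images. Relative viability is the nuclei count in treated wells divided by that in vehicle wells. Values are medians of duplicate plates.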

AZD5582 + Luminespib = compound: C[C@@H](C(=O)N[C@@H](C1CCCCC1)C(=O)N2CCC[C@H]2C(=O)N[C@@H]3[C@@H](CC4=CC=CC=C34)OCC#CC#CCO[C@@H]5CC6=CC=CC=C6[C@@H]5NC(=O)[C@@H]7CCCN7C(=O)[C@H](C8CCCCC8)NC(=O)[C@H](C)NC)NC [AZD5582] + CCNC(=O)c1noc(-c2cc(C(C)C)c(O)cc2O)c1-c1ccc(CN2CCOCC2)cc1 [Luminespib] (partner 0.01 µM)
Procedure, shortened: as §1

AZD5582 + Trametinib = compound: C[C@@H](C(=O)N[C@@H](C1CCCCC1)C(=O)N2CCC[C@H]2C(=O)N[C@@H]3[C@@H](CC4=CC=CC=C34)OCC#CC#CCO[C@@H]5CC6=CC=CC=C6[C@@H]5NC(=O)[C@@H]7CCCN7C(=O)[C@H](C8CCCCC8)NC(=O)[C@H](C)NC)NC [AZD5582] + CC(=O)Nc1cccc(-n2c(=O)n(C3CC3)c(=O)c3c(Nc4ccc(I)cc4F)n(C)c(=O)c(C)c32)c1 [Trametinib] (partner 0.02 µM)
Procedure, shortened: as §1

Temozolomide + Olaparib = compound: Cn1nnc2c(C(N)=O)ncn2c1=O [Temozolomide] + O=C(c1cc(Cc2n[nH]c(=O)c3ccccc23)ccc1F)N1CCN(C(=O)C2CC2)CC1 [Olaparib] (partner 8 µM)
Procedure, shortened: as §1

## PC-14
[1]; first compound 0.2 µM
  relative viability: 0.834
[1]; first compound 0.6325 µM
  relative viability: 0.791
[1]; first compound 2 µM
  relative viability: 0.737
[1]; first compound 6.325 µM
  relative viability: 0.614
[1]; first compound 20 µM
  relative viability: 0.0773
AZD5582 + Luminespib; first compound 0.001581 µM
  relative viability: 0.171
AZD5582 + Luminespib; first compound 0.005 µM
  relative viability: 0.168
AZD5582 + Luminespib; first compound 0.01581 µM
  relative viability: 0.105
AZD5582 + Luminespib; first compound 0.05 µM
  relative viability: 0.143
AZD5582 + Trametinib; first compound 0.001581 µM
  relative viability: 0.404
AZD5582 + Trametinib; first compound 0.005 µM
  relative viability: 0.44
AZD5582 + Trametinib; first compound 0.01581 µM
  relative viability: 0.722
AZD5582 + Trametinib; first compound 0.05 µM
  relative viability: 0.397
Temozolomide + Olaparib; first compound 0.2 µM
  relative viability: 0.279
Temozolomide + Olaparib; first compound 0.6325 µM
  relative viability: 0.371
Temozolomide + Olaparib; first compound 2 µM
  relative viability: 0.228
Temozolomide + Olaparib; first compound 6.325 µM
  relative viability: 0.171
Temozolomide + Olaparib; first compound 20 µM
  relative viability: 0.153

## RERF-LC-KJ
[1]; first compound 0.2 µM
  relative viability: 0.625
[1]; first compound 0.6325 µM
  relative viability: 0.564
[1]; first compound 2 µM
  relative viability: 0.557
[1]; first compound 6.325 µM
  relative viability: 0.501
[1]; first compound 20 µM
  relative viability: 0.467
AZD5582 + Luminespib; first compound 0.01581 µM
  relative viability: 1.22
AZD5582 + Luminespib; first compound 0.05 µM
  relative viability: 1.06
AZD5582 + Trametinib; first compound 0.001581 µM
  relative viability: 0.764
AZD5582 + Trametinib; first compound 0.005 µM
  relative viability: 0.818
AZD5582 + Trametinib; first compound 0.01581 µM
  relative viability: 0.898
AZD5582 + Trametinib; first compound 0.05 µM
  relative viability: 0.781
Temozolomide + Olaparib; first compound 0.2 µM
  relative viability: 0.975
Temozolomide + Olaparib; first compound 0.6325 µM
  relative viability: 1.05
Temozolomide + Olaparib; first compound 2 µM
  relative viability: 0.998
Temozolomide + Olaparib; first compound 6.325 µM
  relative viability: 0.846
Temozolomide + Olaparib; first compound 20 µM
  relative viability: 0.799

## SK-LU-1
[1]; first compound 0.2 µM
  relative viability: 0.688
[1]; first compound 0.6325 µM
  relative viability: 0.62
[1]; first compound 2 µM
  relative viability: 0.544
[1]; first compound 6.325 µM
  relative viability: 0.295
[1]; first compound 20 µM
  relative viability: 0.281
AZD5582 + Luminespib; first compound 0.001581 µM
  relative viability: 0.191
AZD5582 + Luminespib; first compound 0.005 µM
  relative viability: 0.185
AZD5582 + Luminespib; first compound 0.01581 µM
  relative viability: 0.194
AZD5582 + Luminespib; first compound 0.05 µM
  relative viability: 0.177
AZD5582 + Trametinib; first compound 0.001581 µM
  relative viability: 0.379
AZD5582 + Trametinib; first compound 0.005 µM
  relative viability: 0.383
AZD5582 + Trametinib; first compound 0.01581 µM
  relative viability: 0.407
AZD5582 + Trametinib; first compound 0.05 µM
  relative viability: 0.236
Temozolomide + Olaparib; first compound 0.2 µM
  relative viability: 0.428
Temozolomide + Olaparib; first compound 0.6325 µM
  relative viability: 0.446
Temozolomide + Olaparib; first compound 2 µM
  relative viability: 0.416
Temozolomide + Olaparib; first compound 6.325 µM
  relative viability: 0.292
Temozolomide + Olaparib; first compound 20 µM
  relative viability: 0.203

## SK-MES-1
[1]; first compound 0.2 µM
  relative viability: 0.279
[1]; first compound 0.6325 µM
  relative viability: 0.362
[1]; first compound 2 µM
  relative viability: 0.424
[1]; first compound 6.325 µM
  relative viability: 0.331
[1]; first compound 20 µM
  relative viability: 0.282
AZD5582 + Luminespib; first compound 0.001581 µM
  relative viability: 0.773
AZD5582 + Luminespib; first compound 0.005 µM
  relative viability: 0.925
AZD5582 + Luminespib; first compound 0.01581 µM
  relative viability: 0.683
AZD5582 + Luminespib; first compound 0.05 µM
  relative viability: 0.956
AZD5582 + Trametinib; first compound 0.001581 µM
  relative viability: 0.675
AZD5582 + Trametinib; first compound 0.005 µM
  relative viability: 0.949
AZD5582 + Trametinib; first compound 0.01581 µM
  relative viability: 0.542
AZD5582 + Trametinib; first compound 0.05 µM
  relative viability: 1
Temozolomide + Olaparib; first compound 0.2 µM
  relative viability: 0.824
Temozolomide + Olaparib; first compound 0.6325 µM
  relative viability: 0.632
Temozolomide + Olaparib; first compound 2 µM
  relative viability: 0.648
Temozolomide + Olaparib; first compound 6.325 µM
  relative viability: 0.532
Temozolomide + Olaparib; first compound 20 µM
  relative viability: 0.414

## SW 1573
[1]; first compound 0.2 µM
  relative viability: 0.595
[1]; first compound 0.6325 µM
  relative viability: 0.517
[1]; first compound 2 µM
  relative viability: 0.517
[1]; first compound 6.325 µM
  relative viability: 0.483
[1]; first compound 20 µM
  relative viability: 0.428
AZD5582 + Luminespib; first compound 0.001581 µM
  relative viability: 0.19
AZD5582 + Luminespib; first compound 0.005 µM
  relative viability: 0.248
AZD5582 + Luminespib; first compound 0.01581 µM
  relative viability: 0.478
AZD5582 + Luminespib; first compound 0.05 µM
  relative viability: 0.285
AZD5582 + Trametinib; first compound 0.001581 µM
  relative viability: 0.473
AZD5582 + Trametinib; first compound 0.005 µM
  relative viability: 0.586
AZD5582 + Trametinib; first compound 0.01581 µM
  relative viability: 0.537
AZD5582 + Trametinib; first compound 0.05 µM
  relative viability: 0.662
Temozolomide + Olaparib; first compound 0.2 µM
  relative viability: 0.585
Temozolomide + Olaparib; first compound 0.6325 µM
  relative viability: 0.534
Temozolomide + Olaparib; first compound 2 µM
  relative viability: 0.424
Temozolomide + Olaparib; first compound 6.325 µM
  relative viability: 0.302
Temozolomide + Olaparib; first compound 20 µM
  relative viability: 0.236

## UMC-11
[1]; first compound 0.2 µM
  relative viability: 1.08
[1]; first compound 0.6325 µM
  relative viability: 0.917
[1]; first compound 2 µM
  relative viability: 0.893
[1]; first compound 6.325 µM
  relative viability: 0.729
[1]; first compound 20 µM
  relative viability: 0.442
AZD5582 + Luminespib; first compound 0.001581 µM
  relative viability: 0.933
AZD5582 + Luminespib; first compound 0.005 µM
  relative viability: 1.23
AZD5582 + Luminespib; first compound 0.01581 µM
  relative viability: 1.06
AZD5582 + Luminespib; first compound 0.05 µM
  relative viability: 1.14
AZD5582 + Trametinib; first compound 0.001581 µM
  relative viability: 0.624
AZD5582 + Trametinib; first compound 0.005 µM
  relative viability: 0.679
AZD5582 + Trametinib; first compound 0.01581 µM
  relative viability: 0.629
AZD5582 + Trametinib; first compound 0.05 µM
  relative viability: 0.417
Temozolomide + Olaparib; first compound 0.2 µM
  relative viability: 0.386
Temozolomide + Olaparib; first compound 0.6325 µM
  relative viability: 0.612
Temozolomide + Olaparib; first compound 2 µM
  relative viability: 0.382
Temozolomide + Olaparib; first compound 6.325 µM
  relative viability: 0.306
Temozolomide + Olaparib; first compound 20 µM
  relative viability: 0.265
